Laboratory results published in ChEMBL document CHEMBL1138312, “Design and synthesis of indole-based peptoids as potent noncompetitive antagonists of transient receptor potential vanilloid 1” (J Med Chem, 2007).

How the values were obtained:
[1] = molecular target: Transient receptor potential cation channel subfamily V member 1 (Rattus norvegicus, UniProt O35433); assay: Blockade of capsaicin-activated rat TRPV1 channel expressed in Xenopus oocytes; type: cell-based, Oocyte
[2] = molecular target: Glutamate NMDA receptor; Grin1/Grin2a (Rattus norvegicus, UniProt P35439+Q00959); assay: Blockade of L-glutamate/glycine-activated rat NR1/NR2A NMDA receptor expressed in Xenopus oocytes; type: cell-based, Oocyte
Sequence of Glutamate NMDA receptor; Grin1/Grin2a (Q00959 whole entry, other chains not shown): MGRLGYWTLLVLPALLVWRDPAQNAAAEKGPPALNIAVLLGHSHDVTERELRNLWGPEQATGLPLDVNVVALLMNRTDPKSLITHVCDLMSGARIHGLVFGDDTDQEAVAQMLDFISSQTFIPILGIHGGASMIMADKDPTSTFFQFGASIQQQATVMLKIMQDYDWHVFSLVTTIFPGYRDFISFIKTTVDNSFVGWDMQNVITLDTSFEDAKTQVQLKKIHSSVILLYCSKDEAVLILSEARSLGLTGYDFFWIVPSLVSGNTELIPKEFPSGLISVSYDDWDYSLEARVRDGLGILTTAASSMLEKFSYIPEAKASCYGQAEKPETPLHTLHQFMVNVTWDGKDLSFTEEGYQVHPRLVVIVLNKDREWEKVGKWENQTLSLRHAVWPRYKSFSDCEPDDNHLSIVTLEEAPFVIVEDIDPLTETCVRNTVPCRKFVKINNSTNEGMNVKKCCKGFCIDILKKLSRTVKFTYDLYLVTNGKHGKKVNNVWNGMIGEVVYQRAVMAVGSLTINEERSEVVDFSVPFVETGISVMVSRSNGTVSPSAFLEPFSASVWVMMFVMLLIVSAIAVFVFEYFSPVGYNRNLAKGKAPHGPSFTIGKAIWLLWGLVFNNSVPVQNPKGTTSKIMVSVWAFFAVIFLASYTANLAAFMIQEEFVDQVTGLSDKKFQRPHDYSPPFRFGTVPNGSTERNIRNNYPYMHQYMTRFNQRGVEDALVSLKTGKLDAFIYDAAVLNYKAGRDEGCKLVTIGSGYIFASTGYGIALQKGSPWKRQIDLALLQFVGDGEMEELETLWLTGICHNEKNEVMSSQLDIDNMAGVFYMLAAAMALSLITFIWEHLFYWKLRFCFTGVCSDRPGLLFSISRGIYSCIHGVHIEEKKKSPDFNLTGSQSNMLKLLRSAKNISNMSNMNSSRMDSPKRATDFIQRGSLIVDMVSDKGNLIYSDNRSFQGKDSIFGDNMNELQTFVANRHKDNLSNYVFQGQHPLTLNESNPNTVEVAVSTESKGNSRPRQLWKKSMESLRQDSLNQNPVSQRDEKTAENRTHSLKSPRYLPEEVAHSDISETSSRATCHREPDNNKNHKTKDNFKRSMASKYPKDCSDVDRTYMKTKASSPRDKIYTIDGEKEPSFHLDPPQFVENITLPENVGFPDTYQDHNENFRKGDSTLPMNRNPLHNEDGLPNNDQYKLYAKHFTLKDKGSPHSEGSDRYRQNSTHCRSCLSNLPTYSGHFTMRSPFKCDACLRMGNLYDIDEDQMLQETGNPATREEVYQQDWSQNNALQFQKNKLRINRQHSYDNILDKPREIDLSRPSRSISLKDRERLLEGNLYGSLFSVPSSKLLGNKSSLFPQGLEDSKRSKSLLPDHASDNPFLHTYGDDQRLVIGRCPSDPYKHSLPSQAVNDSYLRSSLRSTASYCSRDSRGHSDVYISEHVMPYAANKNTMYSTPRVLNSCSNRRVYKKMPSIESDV

Sequence of Transient receptor potential cation channel subfamily V member 1 (O35433 whole entry): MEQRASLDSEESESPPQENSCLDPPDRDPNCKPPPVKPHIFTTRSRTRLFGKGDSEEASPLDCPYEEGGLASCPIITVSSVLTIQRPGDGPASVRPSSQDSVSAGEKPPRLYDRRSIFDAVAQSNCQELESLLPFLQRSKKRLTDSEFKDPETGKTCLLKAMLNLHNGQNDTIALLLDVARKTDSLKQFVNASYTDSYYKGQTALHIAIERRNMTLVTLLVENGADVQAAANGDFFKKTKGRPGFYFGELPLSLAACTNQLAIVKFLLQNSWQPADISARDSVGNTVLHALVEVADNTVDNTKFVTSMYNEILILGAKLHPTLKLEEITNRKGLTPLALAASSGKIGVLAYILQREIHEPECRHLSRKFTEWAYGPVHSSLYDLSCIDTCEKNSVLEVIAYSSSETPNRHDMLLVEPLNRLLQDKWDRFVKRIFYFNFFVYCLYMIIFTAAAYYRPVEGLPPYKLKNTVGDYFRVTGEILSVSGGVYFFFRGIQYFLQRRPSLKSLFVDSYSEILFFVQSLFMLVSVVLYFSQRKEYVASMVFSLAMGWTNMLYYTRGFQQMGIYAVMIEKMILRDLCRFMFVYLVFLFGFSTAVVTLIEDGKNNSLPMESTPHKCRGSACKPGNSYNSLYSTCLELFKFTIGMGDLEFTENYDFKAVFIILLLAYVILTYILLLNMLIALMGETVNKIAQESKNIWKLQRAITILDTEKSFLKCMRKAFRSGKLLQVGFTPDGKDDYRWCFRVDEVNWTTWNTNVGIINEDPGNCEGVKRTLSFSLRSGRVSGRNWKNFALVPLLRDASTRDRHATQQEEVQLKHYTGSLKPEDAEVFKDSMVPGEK

SMILES | IC50 [1] | IC50 [2]
NC(N)=NCCC[C@H](N)C(=O)N[C@H]1C[C@@H](C(=O)NCCc2ccc(Cl)cc2Cl)N(Cc2ccc(Cl)cc2Cl)C1 | 0.7 µM | 8 µM
NCCCCCCN(CCc1ccc(Cl)cc1Cl)CC(=O)N(CCc1ccc(Cl)cc1Cl)CC(N)=O | 0.4 µM | 3 µM
N=C(N)NCCC[C@H](N)C(=O)N(CCc1ccc(Cl)cc1Cl)CC(=O)NCCc1ccc(Cl)cc1Cl | 0.17 µM | 0.8 µM
N=C(N)NCCC[C@H](N)C(=O)N(CCc1ccc(Cl)cc1Cl)CC(=O)N(CCc1c[nH]c2ccccc12)CC(N)=O | 0.18 µM | 166 µM
N=C(N)NCCC[C@H](N)C(=O)N(CCc1c[nH]c2ccccc12)CC(=O)N(CCc1c[nH]c2ccccc12)CC(N)=O | 1.33 µM | 207 µM
N=C(N)NCCC[C@H](N)C(=O)N(CCc1ccc(Cl)cc1Cl)CC(=O)N(CCc1ccc(Cl)cc1Cl)CC(N)=O | 0.7 µM | 15 µM
NC(N)=NCCC[C@H](N)C(=O)N(CCc1c[nH]c2ccccc12)CC(=O)NCCc1c[nH]c2ccccc12 | – | 18 µM
NC(=O)CN(CCc1ccc(Cl)cc1Cl)C(=O)CN(CCc1c[nH]c2ccccc12)C(=O)[C@@H](N)CCCN=C(N)N | 0.52 µM | 17 µM
